Here are results for 8 cell lines from the supplement of paper PMC10307832.

Experiment in all cases: relative viability (nuclei count vs DMSO), 5 days (fraction); higher = more cells survive
Compound in the experiment “QS11 + AZD7762”: C1CC2=C(C1)C=C(C=C2)OC3=NC(=C4C(=N3)N(C=N4)CC5=CC=C(C=C5)C6=CC=CC=C6)N[C@@H](CC7=CC=CC=C7)CO [QS11] + NC(=O)Nc1cc(-c2cccc(F)c2)sc1C(=O)N[C@H]1CCCNC1 [AZD7762] (partner 0.2 µM)
The essentials:
(§1)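 Medians of duplicate plates are given as relative viability. That measure is the nuclei count in treated wells divided by the count in vehicle wells. Counts were taken on 4× images of lung cancer cell lines in 1536-well plates, 5 days after pin-tool dosing the day after seeding with one drug alone or a fixed anchor-drug dose plus five library-drug doses (not always all listed) in √10 steps.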

Compound in the experiment “QS11 + Lapatinib”: C1CC2=C(C1)C=C(C=C2)OC3=NC(=C4C(=N3)N(C=N4)CC5=CC=C(C=C5)C6=CC=CC=C6)N[C@@H](CC7=CC=CC=C7)CO [QS11] + CS(=O)(=O)CCNCc1ccc(-c2ccc3ncnc(Nc4ccc(OCc5cccc(F)c5)c(Cl)c4)c3c2)o1 [Lapatinib] (partner 2 µM)
The essentials:
as §1

Compound in the experiment “Darinaparsin + Olaparib”: C[As](C)SC[C@H](NC(=O)CC[C@H](N)C(=O)O)C(=O)NCC(=O)O [Darinaparsin] + O=C(c1cc(Cc2n[nH]c(=O)c3ccccc23)ccc1F)N1CCN(C(=O)C2CC2)CC1 [Olaparib] (partner 8 µM)
In a few lines:
as §1

Compound in experiment [1]: C[As](C)SC[C@H](NC(=O)CC[C@H](N)C(=O)O)C(=O)NCC(=O)O [Darinaparsin] + CC(=O)Nc1cccc(-n2c(=O)n(C3CC3)c(=O)c3c(Nc4ccc(I)cc4F)n(C)c(=O)c(C)c32)c1 [Trametinib] (partner 0.02 µM)
The essentials: as §1

Take NCI-H23: the relative viability was 0.229 with QS11 + AZD7762 (first compound 0.08 µM); 0.252 with QS11 + AZD7762 (first compound 0.253 µM); 0.278 with QS11 + AZD7762 (first compound 0.8 µM); 0.208 with QS11 + AZD7762 (first compound 2.53 µM); 0.216 in the experiment with QS11 + AZD7762 (first compound 8 µM); 1.01 with QS11 + Lapatinib (first compound 0.08 µM). The relative viability with QS11 + Lapatinib (first compound 0.253 µM) is 0.988; in the experiment with QS11 + Lapatinib (first compound 0.8 µM), 0.871; with QS11 + Lapatinib (first compound 2.53 µM), 0.885; in the experiment with QS11 + Lapatinib (first compound 8 µM), 1.1; with Darinaparsin + Olaparib (first compound 0.08 µM) it was 0.293; with Darinaparsin + Olaparib (first compound 0.8 µM), 0.291. The relative viability came to 0.363 with Darinaparsin + Olaparib (first compound 2.53 µM); 0.331 with Darinaparsin + Olaparib (first compound 8 µM); 0.402 in experiment [1] (first compound 0.08 µM); 0.339 in experiment [1] (first compound 0.8 µM); 0.43 in experiment [1] (first compound 2.53 µM); 0.409 in experiment [1] (first compound 8 µM).
Turning to NCI-H1355, the relative viability with QS11 + AZD7762 (first compound 0.08 µM) amounted to 0.729; with QS11 + AZD7762 (first compound 0.253 µM) it was 0.607; with QS11 + AZD7762 (first compound 0.8 µM) it was 0.666; with QS11 + AZD7762 (first compound 2.53 µM), 0.614; with QS11 + AZD7762 (first compound 8 µM), 0.759; in the experiment with QS11 + Lapatinib (first compound 0.08 µM), 1.08. The relative viability turned out to be 0.792 with QS11 + Lapatinib (first compound 0.253 µM); 0.688 with QS11 + Lapatinib (first compound 0.8 µM); 0.997 with QS11 + Lapatinib (first compound 2.53 µM); 1.07 with QS11 + Lapatinib (first compound 8 µM); 0.78 in the experiment with Darinaparsin + Olaparib (first compound 0.08 µM); 0.708 in the experiment with Darinaparsin + Olaparib (first compound 0.8 µM). In addition, the relative viability in the experiment with Darinaparsin + Olaparib (first compound 2.53 µM) is 0.676; with Darinaparsin + Olaparib (first compound 8 µM), 0.746; in experiment [1] (first compound 0.08 µM), 0.462; in experiment [1] (first compound 0.8 µM), 0.403; in experiment [1] (first compound 2.53 µM), 0.378; in experiment [1] (first compound 8 µM) it was 0.426.
As for NCI-H1734, the relative viability with QS11 + AZD7762 (first compound 0.08 µM) was found to be 0.579; in the experiment with QS11 + AZD7762 (first compound 0.253 µM), 0.595; in the experiment with QS11 + AZD7762 (first compound 0.8 µM), 0.71; with QS11 + AZD7762 (first compound 2.53 µM), 0.465; in the experiment with QS11 + AZD7762 (first compound 8 µM), 0.529; in the experiment with QS11 + Lapatinib (first compound 0.08 µM) it was 1.07. In addition, the relative viability in the experiment with QS11 + Lapatinib (first compound 0.253 µM) is 0.968; in the experiment with QS11 + Lapatinib (first compound 0.8 µM), 0.921; with QS11 + Lapatinib (first compound 2.53 µM), 1.01; with QS11 + Lapatinib (first compound 8 µM) it was 0.898; with Darinaparsin + Olaparib (first compound 0.08 µM), 0.73; with Darinaparsin + Olaparib (first compound 0.8 µM) it was 0.561. The relative viability turned out to be 0.627 in the experiment with Darinaparsin + Olaparib (first compound 2.53 µM); 0.641 with Darinaparsin + Olaparib (first compound 8 µM); 0.724 in experiment [1] (first compound 0.08 µM); 0.611 in experiment [1] (first compound 0.8 µM); 0.655 in experiment [1] (first compound 2.53 µM); 0.677 in experiment [1] (first compound 8 µM).
Regarding EPLC-272H, the relative viability with QS11 + AZD7762 (first compound 0.253 µM) amounted to 0.202; with QS11 + AZD7762 (first compound 0.8 µM) it was 0.246; in the experiment with QS11 + AZD7762 (first compound 2.53 µM), 0.278; in the experiment with QS11 + AZD7762 (first compound 8 µM), 0.247; in the experiment with QS11 + Lapatinib (first compound 0.08 µM), 1.01; with QS11 + Lapatinib (first compound 0.253 µM), 0.855. In addition, the relative viability with QS11 + Lapatinib (first compound 0.8 µM) stood at 0.953; with QS11 + Lapatinib (first compound 2.53 µM) it was 0.98; with QS11 + Lapatinib (first compound 8 µM), 0.871; in the experiment with Darinaparsin + Olaparib (first compound 0.08 µM) it was 0.659; with Darinaparsin + Olaparib (first compound 0.8 µM), 0.958; with Darinaparsin + Olaparib (first compound 2.53 µM) it was 0.514. Also, the relative viability with Darinaparsin + Olaparib (first compound 8 µM) turned out to be 0.615; in experiment [1] (first compound 0.08 µM), 0.292; in experiment [1] (first compound 0.8 µM) it was 0.311; in experiment [1] (first compound 2.53 µM), 0.31; in experiment [1] (first compound 8 µM), 0.305.
Regarding LXF-289, the relative viability stood at 1.14 in the experiment with QS11 + AZD7762 (first compound 0.08 µM); 1.08 with QS11 + AZD7762 (first compound 0.253 µM); 0.899 in the experiment with QS11 + AZD7762 (first compound 0.8 µM); 1 with QS11 + AZD7762 (first compound 2.53 µM); 0.93 in the experiment with QS11 + AZD7762 (first compound 8 µM); 0.941 with QS11 + Lapatinib (first compound 0.08 µM). For the same cell line, the relative viability in the experiment with QS11 + Lapatinib (first compound 0.253 µM) was 0.909; with QS11 + Lapatinib (first compound 0.8 µM) it was 0.757; with QS11 + Lapatinib (first compound 2.53 µM), 0.821; in the experiment with QS11 + Lapatinib (first compound 8 µM) it was 0.739; with Darinaparsin + Olaparib (first compound 0.08 µM) it was 1.46; with Darinaparsin + Olaparib (first compound 0.8 µM), 1.09. The relative viability stood at 0.841 with Darinaparsin + Olaparib (first compound 2.53 µM); 1.03 with Darinaparsin + Olaparib (first compound 8 µM); 0.768 in experiment [1] (first compound 0.08 µM); 0.667 in experiment [1] (first compound 0.8 µM); 0.677 in experiment [1] (first compound 2.53 µM); 0.697 in experiment [1] (first compound 8 µM).
Consider NCI-H1395, for which the relative viability with QS11 + AZD7762 (first compound 0.08 µM) was 0.389; with QS11 + AZD7762 (first compound 0.253 µM) it was 0.382; with QS11 + AZD7762 (first compound 0.8 µM) it was 0.4; with QS11 + AZD7762 (first compound 2.53 µM) it was 0.432; with QS11 + AZD7762 (first compound 8 µM), 0.404; with QS11 + Lapatinib (first compound 0.253 µM) it was 0.98. The relative viability in the experiment with QS11 + Lapatinib (first compound 0.8 µM) came to 0.992; in the experiment with QS11 + Lapatinib (first compound 2.53 µM), 1.14; with QS11 + Lapatinib (first compound 8 µM), 0.977; in the experiment with Darinaparsin + Olaparib (first compound 0.08 µM) it was 0.457; in the experiment with Darinaparsin + Olaparib (first compound 0.8 µM) it was 0.441; with Darinaparsin + Olaparib (first compound 2.53 µM) it was 0.407. Further, the relative viability with Darinaparsin + Olaparib (first compound 8 µM) was 0.404; in experiment [1] (first compound 0.08 µM) it was 1.24; in experiment [1] (first compound 0.8 µM) it was 0.954; in experiment [1] (first compound 2.53 µM), 0.957; in experiment [1] (first compound 8 µM) it was 0.94.
As to H3255, the relative viability in the experiment with QS11 + AZD7762 (first compound 0.08 µM) stood at 0.931; with QS11 + AZD7762 (first compound 0.253 µM) it was 0.946; with QS11 + AZD7762 (first compound 0.8 µM), 0.634; with QS11 + AZD7762 (first compound 2.53 µM), 1.01; with QS11 + AZD7762 (first compound 8 µM), 0.902; with QS11 + Lapatinib (first compound 0.08 µM) it was 0.261. The relative viability with QS11 + Lapatinib (first compound 0.253 µM) came out at 0.236; with QS11 + Lapatinib (first compound 2.53 µM), 0.24; with QS11 + Lapatinib (first compound 8 µM), 0.234; in the experiment with Darinaparsin + Olaparib (first compound 0.08 µM), 0.644; with Darinaparsin + Olaparib (first compound 0.8 µM) it was 0.518; with Darinaparsin + Olaparib (first compound 2.53 µM) it was 0.606. For the same cell line, the relative viability came out at 0.632 with Darinaparsin + Olaparib (first compound 8 µM); 0.595 in experiment [1] (first compound 0.08 µM); 0.812 in experiment [1] (first compound 0.8 µM); 0.574 in experiment [1] (first compound 2.53 µM); 0.62 in experiment [1] (first compound 8 µM).
Turning to NCI-H2170, the relative viability with QS11 + AZD7762 (first compound 0.08 µM) stood at 0.87; with QS11 + AZD7762 (first compound 0.253 µM), 0.942; with QS11 + AZD7762 (first compound 0.8 µM), 0.722; with QS11 + AZD7762 (first compound 2.53 µM) it was 0.871; with QS11 + AZD7762 (first compound 8 µM), 1.02; with QS11 + Lapatinib (first compound 0.08 µM) it was 0.276. Also, the relative viability with QS11 + Lapatinib (first compound 0.253 µM) is 0.262; in the experiment with QS11 + Lapatinib (first compound 0.8 µM), 0.246; with QS11 + Lapatinib (first compound 2.53 µM), 0.281; in the experiment with QS11 + Lapatinib (first compound 8 µM), 0.316; in the experiment with Darinaparsin + Olaparib (first compound 0.08 µM) it was 0.722; in the experiment with Darinaparsin + Olaparib (first compound 0.8 µM), 0.662. The relative viability was determined as 0.614 in the experiment with Darinaparsin + Olaparib (first compound 2.53 µM); 0.543 in the experiment with Darinaparsin + Olaparib (first compound 8 µM); 1.17 in experiment [1] (first compound 0.08 µM); 0.955 in experiment [1] (first compound 0.8 µM); 0.926 in experiment [1] (first compound 2.53 µM); 1.18 in experiment [1] (first compound 8 µM).
